Experimental data: ChEMBL document CHEMBL1133801, “Synthesis, characterisation and antiamoebic activity of new thiophene-2-carboxaldehyde thiosemicarbazone derivatives and their cyclooctadiene Ru(II) complexes” (Bioorg Med Chem Lett, 2001)
≈ marks a conversion by molar mass, not a printed value.

Tested on: Entamoeba histolytica
Assay: In vitro antiamoebic activity was evaluated against HK-9 strain of Entamoeba histolytica
Type: functional, organism-based

Structure (SMILES)	IC50
S=C(N/N=C/c1cccs1)N1CCCCCC1	0.7 µg/mL (≈ 2.62 µM)
S=C(N/N=C/c1cccs1)NC1CCCC1	0.64 µg/mL (≈ 2.53 µM)
S=C(N/N=C/c1cccs1)NC1CCCCCCC1	0.5 µg/mL (≈ 1.69 µM)
Cc1ncc([N+](=O)[O-])n1CCO [METRONIDAZOLE]	0.22 µg/mL (≈ 1.29 µM)
S=C(N/N=C/c1cccs1)NC1CCCCC1	0.56 µg/mL (≈ 2.09 µM)
